Results as given in patent US10821115B2, “Compounds that inhibit Mcl-1 protein” (priority 2017, dated 2020).
pIC50: −log10 of the molar value. Like-named read-outs stand apart in the source and are kept apart here.

What was measured:
[1] = system: human multiple myeloma cell line, OPM-2; experiment: Cell viability assay (OPM-2 10 FBS), CellTiter-Glo; assay type: cell-based; settings: Homo sapiens, OPM-2, 16 h, read-out: OPM-2 10% FBS IC50 IP, OPM-2 cells, 10% FBS, 16 h incubation
Procedure, shortened: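 Cells were seeded at 3000 cells/well in RPMI 1640 with 10% FBS and exposed to serially diluted compounds for 16 h at 37 °C, 5% CO2.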

[2] = biological target: recombinant human Mcl-1 (residues 171-327) / Bim interaction (Homo sapiens (Human), UniProt Q07820); experiment: biochemical; assay type: binding; settings: read-out: Mcl-1 HTRF IC50
[3] = 0.1 nM Mcl-1(171-327), 0.05 nM biotin-Bim (51-76)
[4] = TR-FRET, Mcl-1(171-327) / biotin-Bim (51-76)

Chain of recombinant human Mcl-1 (residues 171-327) / Bim interaction (Q07820 171-327): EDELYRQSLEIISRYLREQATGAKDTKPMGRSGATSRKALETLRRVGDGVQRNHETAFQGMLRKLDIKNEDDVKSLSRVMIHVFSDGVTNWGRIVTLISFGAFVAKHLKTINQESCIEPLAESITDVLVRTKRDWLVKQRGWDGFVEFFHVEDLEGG

Row | SMILES | pIC50 [2, 4] | also measured
1 | C[C@@H]1[C@@H](C)C/C=C/[C@@](O)(CN2CCN3CCCC[C@@H]3C2)[C@@H]2CC[C@H]2CN2C[C@@]3(CCCc4cc(Cl)ccc43)COc3ccc(cc32)C(=O)NS1(=O)=O (racemic) [Example 236] |  | pIC50 [1]: 7.06; pIC50 [2, 3]: 10.01
2 | C[C@@H]1CS(=O)(=O)NC(=O)c2ccc3c(c2)N(C[C@@H]2CC[C@H]2[C@](O)(CN2CCN4CCOC[C@@H]4C2)CC[C@@H]1C)C[C@@]1(CCCc2cc(Cl)ccc21)CO3 [Example 405, (1S,3′R,6′R,7′S,10′S,11′S)-6-chloro-7′-((9aS)-hexahydropyrazino[2,1-c][1,4]oxazin-8(1H)-ylmethyl)-7′-hydroxy-10′,11′-dimethyl-3,4-dihydro-2H, 15′H-spiro[naphthalene-1,22′-[20]oxa[13]thia[1,14]diazatetracyclo[14.7.2.0-3,6˜.0˜19,24˜]pentacosa[16,18,24]trien]-15′-one 13′,13′-dioxide] |  | pIC50 [2, 3]: 10.24
3 | CCO[C@]1(CN2CCN(C(C)C)[C@H](C)C2)CCC[C@H](C)[C@@H](CCOC)S(=O)(=O)NC(=O)c2ccc3c(c2)N(C[C@@H]2CC[C@H]21)C[C@@]1(CCCc2cc(Cl)ccc21)CO3 [Example 519, (1S,3′R,6′R,7′R,11′S,12′R)-6-chloro-7′-ethoxy-12′-(2-methoxyethyl)-11′-methyl-7′-(((3R)-3-methyl-4-(2-propanyl)-1-piperazinyl)methyl)-3,4-dihydro-2H, 15′H-spiro[naphthalene-1,22′-[20]oxa[13]thia[1,14]diazatetracyclo[14.7.2.0-3,6˜.0˜19,24˜]pentacosa[16,18,24]trien]-15′-one 13′,13′-dioxide] |  | pIC50 [2, 3]: 9.80
4 | CO[C@@]1(CO)/C=C/C[C@H](C)[C@@H](C)S(=O)(=O)NC(=O)c2ccc3c(c2)N(C[C@@H]2CC[C@H]21)C[C@@]1(CCCc2cc(Cl)ccc21)CO3 [Example 100001, (1 S,3′R,6′R,7′S, 8′E,11′S, 12′R)-6-chloro-7′-(hydroxymethyl)-7′-methoxy-11′,12′-dimethyl-3,4-dihydro-2H, 15′H-spiro[naphthalene-1,22′-[20]oxa[13]thia[1,14]diazatetracyclo[14.7.2.˜3,6˜.0˜19,24˜]pentacosa[8,16,18,24]tetraen]-15′-one 13′,13′-dioxide] | 10.26 | 
5 | O=C1NS(=O)(=O)CCCCC[C@](O)(CO)[C@@H]2CC[C@H]2CN2C[C@@]3(CCCc4cc(Cl)ccc43)COc3ccc1cc32 [Example 100021, (1S,3′R,6′R,7′R)-6-chloro-7′-hydroxy-7′-(hydroxymethyl)-3,4-dihydro-2H,15′H-spiro[naphthalene-1,22′-[20]oxa[13]thia[1,14]diazatetracyclo [14.7.2.0~3,6~.0~19,24~]pentacosa[16,18,24]trien]-15′-one 13′,13′-dioxide] | 8.98 | 
6 | O=C1NS(=O)(=O)CCCCC[C@@](O)(CO)[C@@H]2CC[C@H]2CN2C[C@@]3(CCCc4cc(Cl)ccc43)COc3ccc1cc32 [Example 100022, (1S,3′R,6′R,7′S)-6-chloro-7′-hydroxy-7′-(hydroxymethyl)-3,4-dihydro-2H,15′H-spiro[naphthalene-1,22′-[20]oxa[13]thia[1,14]diazatetracyclo [14.7.2.0~3,6~.0~19,24~]pentacosa[16,18,24]trien]-15′-one 13′,13′-dioxide] | 9.06 | 
7 | C[C@]1(O)CCCCCS(=O)(=O)NC(=O)c2ccc3c(c2)N(C[C@@H]2CC[C@H]21)C[C@@]1(CCCc2cc(Cl)ccc21)CO3 [Example 100023, (1S,3′R,6′R,7′S)-6-chloro-7′-hydroxy-7′-methyl-3,4-dihydro-2H,15′H-spiro[naphthalene-1,22′-[20]oxa[13]thia[1,14]diazatetracyclo [14.7.2.0~3,6~.0~19,24~]pentacosa[16,18,24]trien]-15′-one 13′,13′-dioxide] | 8.40 | 
8 | C[C@@]1(O)CCCCCS(=O)(=O)NC(=O)c2ccc3c(c2)N(C[C@@H]2CC[C@H]21)C[C@@]1(CCCc2cc(Cl)ccc21)CO3 [Example 100024, (1S,3′R,6′R,7′R)-6-chloro-7′-hydroxy-7′-methyl-3,4-dihydro-2H,15′H-spiro[naphthalene-1,22′-[20]oxa[13]thia[1,14]diazatetracyclo [14.7.2.0~3,6~.0~19,24~]pentacosa[16,18,24]trien]-15′-one 13′,13′-dioxide] | 8.21 | 
9 | CC#C[C@]1(O)CCCCCS(=O)(=O)NC(=O)c2ccc3c(c2)N(C[C@@H]2CC[C@H]21)C[C@@]1(CCCc2cc(Cl)ccc21)CO3 [Example 100025, (1S,3′R,6′R,7′S)-6-chloro-7′-hydroxy-7′-(1-propyn-1-yl)-3,4-dihydro-2H,15′H-spiro[naphthalene-1,22′-[20]oxa[13]thia[1,14]diazatetracyclo [14.7.2.0~3,6~.0~19,24~]pentacosa[16,18,24]trien]-15′-one 13′,13′-dioxide] | 8.63 | 
10 | CC#C[C@@]1(O)CCCCCS(=O)(=O)NC(=O)c2ccc3c(c2)N(C[C@@H]2CC[C@H]21)C[C@@]1(CCCc2cc(Cl)ccc21)CO3 [Example 100026, (1S,3′R,6′R,7′R)-6-chloro-7′-hydroxy-7′-(1-propyn-1-yl)-3,4-dihydro-2H,15′H-spiro[naphthalene-1,22′-[20]oxa[13]thia[1,14]diazatetracyclo [14.7.2.0~3,6~.0~19,24~]pentacosa[16,18,24]trien]-15′-one 13′,13′-dioxide] | 8.67 | 
11 | N#C[C@]1(O)CCCCCS(=O)(=O)NC(=O)c2ccc3c(c2)N(C[C@@H]2CC[C@H]21)C[C@@]1(CCCc2cc(Cl)ccc21)CO3 [Example 100027, (1S,3′R,6′R,7′S)-6-chloro-7′-hydroxy-15′-oxo-3,4-dihydro-2H-spiro[naphthalene-1,22′-[20]oxa[13]thia[1,14]diazatetracyclo [14.7.2.0~3,6~.0~19,24~]pentacosa[16,18,24]triene]-7′-carbonitrile 13′,13′-dioxide] | 8.13 | 
12 | C[C@H]1CC/C=C/[C@@](C)(O)[C@@H]2CC[C@H]2CN2C[C@@]3(CCCc4cc(Cl)ccc43)COc3ccc(cc32)C(=O)NS1(=O)=O [Example 100030, (1S,3′R,6′R,7′R,8′E,12′S)-6-chloro-7′-hydroxy-7′,12′-dimethyl-3,4-dihydro-2H,15′H-spiro[naphthalene-1,22′-[20]oxa[13]thia[1,14]diazatetracyclo [14.7.2.0~3,6~.0~19,24~]pentacosa[8,16,18,24]tetraen]-15′-one 13′,13′-dioxide] | 7.98 | 
13 | C[C@H]1CCCC[C@](C)(O)[C@@H]2CC[C@H]2CN2C[C@@]3(CCCc4cc(Cl)ccc43)COc3ccc(cc32)C(=O)NS1(=O)=O [Example 100031, (1S,3′R,6′R,7′S,12′S)-6-chloro-7′-hydroxy-7′,12′-dimethyl-3,4-dihydro-2H,15′H-spiro[naphthalene-1,22′-[20]oxa[13]thia[1,14]diazatetracyclo [14.7.2.0~3,6~.0~19,24~]pentacosa[16,18,24]trien]-15′-one 13′,13′-dioxide] |  | pIC50 [2]: 8.13
14 | CC[C@@H]1CC/C=C/[C@@](O)(CO)[C@@H]2CC[C@H]2CN2C[C@@]3(CCCc4cc(Cl)ccc43)COc3ccc(cc32)C(=O)NS1(=O)=O [Example 100034, (1S,3′R,6′R,7′S,8′E,12′R)-6-chloro-12′-ethyl-7′-hydroxy-7′-(hydroxymethyl)-3,4-dihydro-2H,15′H-spiro[naphthalene-1,22′-[20]oxa[13]thia[1,14]diazatetracyclo [14.7.2.0~3,6~.0~19,24~]pentacosa[8,16,18,24]tetraen]-15′-one 13′,13′-dioxide] | 9.06 | 
15 | CO[C@]1(CO)/C=C/C[C@H](C)[C@@H](C)S(=O)(=O)NC(=O)c2ccc3c(c2)N(C[C@@H]2CC[C@H]21)C[C@@]1(CCCc2cc(Cl)ccc21)CO3 [Example 100312, (1S,3′R,6′R,7′R,8′E,11′S,12′R)-6-chloro-7′-(hydroxymethyl)-7′-methoxy-11′,12′-dimethyl-3,4-dihydro-2H,15′H-spiro[naphthalene-1,22′-[20]oxa[13]thia[1,14]diazatetracyclo [14.7.2.0~3,6~.0~19,24~]pentacosa[8,16,18,24]tetraen]-15′-one 13′,13′-dioxide] | 10.06 | 
16 | CO[C@@]1(CCN(C)C2CCCC2)/C=C/C[C@H](C)[C@@H](C)S(=O)(=O)NC(=O)c2ccc3c(c2)N(C[C@@H]2CC[C@H]21)C[C@@]1(CCCc2cc(Cl)ccc21)CO3 [Example 100418, (1S,3′R,6′R,7′S,8′E,11′S,12′R)-6-chloro-7′-(2-(cyclopentyl(methyl)amino)ethyl)-7′-methoxy-11′,12′-dimethyl-3,4-dihydro-2H,15′H-spiro[naphthalene-1,22′-[20]oxa[13]thia[1,14]diazatetracyclo [14.7.2.0~3,6~.0~19,24~]pentacosa[8,16,18,24]tetraen]-15′-one 13′,13′-dioxide] | 10.01 | 
17 | C[C@@H]1[C@@H](C)C/C=C/[C@@](O)(C#CCCCN2CCOCC2)[C@@H]2CC[C@H]2CN2C[C@@]3(CCCc4cc(Cl)ccc43)COc3ccc(cc32)C(=O)NS1(=O)=O [Example 100493, (1S,3′R,6′R,7′S,8′E,11′S,12′R)-6-chloro-7′-hydroxy-11′,12′-dimethyl-7′-(5-(4-morpholinyl)-1-pentyn-1-yl)-3,4-dihydro-2H,15′H-spiro[naphthalene-1,22′-[20]oxa[13]thia[1,14]diazatetracyclo [14.7.2.0~3,6~.0~19,24~]pentacosa[8,16,18,24]tetraen]-15′-one 13′,13′-dioxide] | 9.49 | 
18 | C[C@@H]1[C@@H](C)C/C=C/[C@](O)(C#CCCCN2CCOCC2)[C@@H]2CC[C@H]2CN2C[C@@]3(CCCc4cc(Cl)ccc43)COc3ccc(cc32)C(=O)NS1(=O)=O [Example 100494, (1S,3′R,6′R,7′R,8′E,11′S,12′R)-6-chloro-7′-hydroxy-11′,12′-dimethyl-7′-(5-(4-morpholinyl)-1-pentyn-1-yl)-3,4-dihydro-2H,15′H-spiro[naphthalene-1,22′-[20]oxa[13]thia[1,14]diazatetracyclo [14.7.2.0~3,6~.0~19,24~]pentacosa[8,16,18,24]tetraen]-15′-one 13′,13′-dioxide] | 10.11 | 
